Experimental data: article PMC9655874, “Analysis of Volatile Secondary Metabolites in Ocimum basilicum Cell Suspensions: Inhibition, In Silico Molecular Docking, and an ADMET Analysis against Proteolytic Enzymes of Rhynchophorus ferrugineus” (Plants, 2022)
Values after ≈ are worked out from the molar mass of the structure shown. Values joined by “and” are separate entries in the source; they are usually repeats but may differ in a detail not shown here. Equal values may be shown once.

Experiments:
[1] = system: R. ferrugineus adults; assay: whole plant or invertebrate; type: in vivo; conditions: Rhynchophorus ferrugineus, read-out: LC50 (µg/mL) 95% CF
Experimental: (§1) Cells were suspended in the methanolic extract at serially increasing concentrations for 40 days. To dilute the compounds, TritonX-100 (0.1%) was added to acetone after the chemicals were dissolved. Adults or larvae of R. ferrugineus were purchased. They were then cultured using long lengths of sugar cane stem. The extracts’ anti-larvae action was assessed by applying topically to larvae and keeping them at 4–5 °C for 5 min. Utilizing a manually controlled micro-applicator, each larva had extract injected into its dorsum in three separate 10 µL doses using a 50-ll micro-syringe from Hertfordshire, UK’s Burkard Manufacturing Co., Ltd. (MS-N50; Shizuoka, Japan’s Ito Corp.). Five larvae in a box with three replications were fed on portions of long sugarcane stem measuring 10 cm. […] The sugarcane stem’s ten-centimeter-long portions cut into equal longitudinal halves were used to measure the antifeedant activity against adults. Long sections of sugarcane stem with a surface area of approximately 32.2 cm^2 were dried in air at room temperature, assuming a dipping time of 10 s and an initial serial concentration of (10 mL). Each treated object remained in a plastic container. Each box included an additional pair (male and female). Each therapy was administered ten times. In total, 24-, 48-, 72-, and 96-h feeding observations were assessed.
(§2) Statistics and probit analysis were performed using SPSS 25.0, as mentioned by Finney. To sum up, all numerical predictions of toxicity variables and findings were presented as the mean ± SE. We regressed mortality and translated the resulting dosage to an LC50 value (µg/mL). […] Enzyme activity data were analyzed using an ANOVA. Means were separated using the SNK (Student–Newman–Keuls) test, and deviations at the p ˂ 0.05 level were considered noteworthy.

[2] = system: R. ferrugineus 4th larvae; assay: Topical application (contact insecticide) to fourth instar larvae; type: in vivo, Rhynchophorus ferrugineus; conditions: for LD50 (µg/Larvae) 95% CF: 4th larvae, topical, 95% confidence limits in brackets; for LD50: larvae
Experimental: as §1, §2

[3] = target: elastase of R. ferrugineus midgut; assay: Serine proteinase specific activity, elastase (in vitro); type: biochemical, Rhynchophorus ferrugineus; conditions: 4th instar midgut homogenate
[4] = target: cysteine protease of R. ferrugineus midgut; assay: Cysteine proteinase activity (in vitro); type: biochemical, Rhynchophorus ferrugineus; conditions: 4th instar midgut homogenate
Experimental: (§3) Utilizing the substrate N-benzoyl-Phe-Val-Arg-p-nitroanilide hydrochloride and certain modifications, the cysteine proteinases of R. ferrugineus homogenate from the fourth midgut instar was tested for activity. Ten larvae of the fourth midgut were carefully taken out, dissected, and periodically washed with 0.9% (w/v) NaCl solution, assay buffer containing 50 mM HEPS, 5 mM DTT, and 0.1% Triton X-100 (v/v) (pH 8.0, 500 µL) was used to homogenize the samples. The homogenates were spun using a cooling Sigma 3k30 centrifuge for 30 min at 5000 rpm. […] Before introducing 100 µL of the substrate, 10 µL of the supernatant was incubated in assay buffer (60 µL, pH = 8) at 37 °C for 30 min. Enzyme samples in 10 µL were incubated for 10 min with iodoacetic acid before the addition of the substrate. […] The absorbance at 520 nm was measured after spinning the reaction for 6 min at 5000 rpm. The activity in the midgut was assayed at OD520.60 min^−1 mg^−1 of protein with an ELISA rapid reader.

[5] = system: elastase of R. ferrugineus midgut; assay: Elastase activity in midgut of treated larvae (in vivo); set-up: species or system Rhynchophorus ferrugineus; conditions: larvae treated 24 h, midgut preparation
[6] = system: cysteine protease of R. ferrugineus midgut; assay: Cysteine protease activity in midgut of treated larvae (in vivo); set-up: species or system Rhynchophorus ferrugineus; conditions: larvae treated 24 h, midgut preparation
Experimental: as §3

[7] = system: trypsin proteinase of R. ferrugineus midgut; assay: Trypsin activity in midgut of treated larvae (in vivo); conditions: larvae treated 24 h, midgut preparation
Experimental: (§4) We used a serine protease assay buffer and a modified version of the fast microplate method to analyze the serine proteinase’s specific activity in mixtures (150 µL) [26]. […] The sample (10 µL) was diluted using an assay buffer to 50 µL to determine the presence of trypsin proteinase, chymotrypsin proteinase, and elastase. Assay buffer was used to dilute stock substrates of BAρNA (100 mg/mL DMSO), both SAAPFρNA and SAAPLρNA (100 mg/mL DMF), to 1.0 mg/mL. To halt the reaction after 15 min of incubation at 37 °C, 50 µL of acetic acid (30%, v/v) was added. The intensity of the activity was measured using a 405 nm ELISA plate reader. A denaturation enzyme was used in place of an active enzyme in the experiment mixture. For three substrates (SAAPLρNA, BAρNA, and SAAPFρNA), activity levels of certain proteinases were assessed as OD mg^−1 protein min^−1.
(§5) An experiment that was set up free of potential inhibitors served as a control. An ELISA plate fast reader measured the enzymes’ absorption at various wavelengths. For each inhibitor, the control enzyme’s percentage activity was assessed for each enzyme. Four instars midgut larvae were treated with previous concentrations of extracts or compounds, assessed as previously mentioned, to measure the protease activity in vivo. Larvae were subjected to extract- and compound-treated leaf discs for 24 h.

[8] = target: trypsin proteinase of R. ferrugineus midgut; assay: Serine proteinase specific activity, trypsin (in vitro); conditions: 4th instar midgut homogenate
Experimental: as §4, §5

[9] = system: total proteases of R. ferrugineus midgut; assay: Total protease activity in midgut of treated larvae (in vivo); conditions: larvae treated 24 h, midgut preparation
Experimental: (§6) The homogenate of R. ferrugineus 4th midgut instar larvae (lab strain) was assayed for total proteolytic enzyme activity using azocasein, as Darrag et al. [26], with modifications. Ten 4th midgut larval homogenates were carefully removed, incised, and then rinsed in a solution containing 0.9% NaCl before even being homogenized in a buffer (500 µL) containing 5 mM dithiothreitol (DTT), 0.1% (v/v) Triton X-100, and 50 mM N-2-hydroxyethyl piperazine-N′-2-ethane sulphonic acid (HEPS), and 8.0 pH. It was spun in a centrifuge (Sigma 3k30), and the remaining homogenates were from a preliminary phase for 30 min at 5000 rpm. Using the supernatants, the protein concentration and proteolytic enzyme activity were determined. […] Before each reaction experiment, 40-day-old methanolic extract of cell suspension, pure chemicals, and 10 μL of enzyme specimens were incubated for 10 min. The addition of the substrate initiated the reaction, which was allowed for 20 min in the case of leupeptin before being terminated 180 min later by adding 300 µL of cold tri-chloroacetic acid (TCA) (10%, v/v). Twenty minutes were spent centrifuging the mixture at 5000 rpm (Sigma 3k30). Overall, 10 µL of NaOH (10 N) was added to the supernatant, and the absorbance was measured using an ELISA plate reader at 450 nm to quantify the enzymes’ specific activity as OD450/mg protein/h.
as §5

[10] = target: metalloprotease of R. ferrugineus midgut; assay: Metalloproteinase specific activity, CEGR substrate (in vitro); conditions: 4th instar midgut homogenate
Experimental: (§7) The ten midgut larvae from the fourth stage were neatly eliminated, dissected, and repeatedly washed with 0.9% NaCl solution. A 500 µL protease test solution, including 50 mM HEPS, 0.1% Triton X-100, and 5 mM DTT (pH 8.0), was utilized to homogenize the midgut instar. The homogenates were then centrifuged employing a Sigma 3k30 (cooling centrifuge) at 5000 rpm for 30 min to evaluate the supernatant’s enzyme activity and protein content. Before introducing CEGR (125 µL, 2% (w/v)), each experiment’s supernatant (10 µL) was incubated in an assay buffer (60 µL) at 37 °C for 20 min (pH 8). During a 10 min incubation period without a substrate, 10 µL enzyme samples were tested (20 min. for EDTA, EGTA, 1.10, Phenanthroline). After 180 min at 37 °C, 300 µL of cold TCA, 10% (v/v), was used to terminate the reaction. For the next 20 min, the mixture was spun (5000 rpm, Sigma 3K30). The absorbance was measured at 450 nm after mixing the supernatant with hydroxide solution (10 µL, 10 N) using an ELISA reader. An enzyme-free assay combination was utilized as a blank, and particular activity was evaluated utilizing the OD493 mg^−1 protein min^−1 and an enzyme-free blank specimen.
as §5

[11] = target: total proteases of R. ferrugineus midgut; assay: Total proteolytic enzyme activity of 4th instar midgut homogenate, azocasein (in vitro)
Experimental: as §6, §5

[12] = system: gut proteases of R. ferrugineus fourth larval instar; assay: Specific protease inhibitors against gut proteases of fourth larval instar (in vitro); type: biochemical, Rhynchophorus ferrugineus; conditions: Figure S2, in vitro
Experimental: As a starting point (blank), an assessment combination not containing enzymes was utilized. TLCK (trypsin proteinase inhibitor), PMSF (general serine proteinase inhibitor), EDTA (EDTA-metalloproteinase inhibitor), iodoacetic acid (an iodoacetic acid-cysteine proteinase inhibitor), TPCK (chymotrypsin-proteinase inhibitor), and Leupeptin (as general proteinase inhibitor) were added to the reactions. Homogenates of larval fourth-gut tissue were prepared using the same methodology described for the enzyme activity test. The inhibitory test was conducted via a microplate assay, as reported previously. A series of inhibitor levels were prepared to determine the greatest inhibition activity. Concentrations of 0.01, 0.05, 0.1, and 1.0 mM leupeptin; 0.005, 0.01, 0.05, 0.1, and 1 mM TLCK and TPCK; 0.1, 1.0, 10, 50, and 100 mM PMSF; and 0.01, 0.05, 0.1, 1, and 2 mM iodoacetic acid, 100 mM; 1,10 phenanthroline, EDTA, and EGTA concentrations of 0.1, 1, 10, 50, and 100 mM.

[13] = system: metalloprotease of R. ferrugineus midgut; assay: Metalloprotease activity in midgut of treated larvae (in vivo); conditions: larvae treated 24 h, midgut preparation
Experimental: as §7, §5

Row | SMILES | LC50 [1] [µg/mL] | LD50 (µg/Larvae) 95% CF [2] | LD50 [2] [µg/larva] | LD50 ([2]; topical application) [µg/larva] | IC50 elastase (in vitro) [3] [µg/mL] | IC50 cysteine protease (in vitro) [4] [µg/mL] | IC50 elastase (in vivo) [5] [µg/mL] | IC50 cysteine protease (in vivo) [6] [µg/mL] | IC50 trypsin proteinase (in vivo) [7] | IC50 trypsin proteinase (in vitro) [8] [µg/mL] | IC50 total proteases (in vivo) [9] [µg/mL] | IC50 metalloprotease (in vitro) [10] [µg/mL] | IC50 total proteases (in vitro) [11] [µg/mL] | Effect on extracted gut proteases of the fourth larval instar [12] | IC50 metalloprotease (in vivo) [13] [µg/mL]
1 | C=CCc1ccc(O)c(OC)c1 [eugenol] | 1460 (≈ 8890 µM) | 14.2 (13.1–15.4) µg/Larvae | 14.2 | 14.2 | 165.7 (≈ 1010 µM) | 294.4 (≈ 1790 µM) | 346.8 (≈ 2110 µM) | 453.1 (≈ 2760 µM) | 612.8 µg/mL (≈ 3730 µM) | 247.2 (≈ 1510 µM) | 201.4 (≈ 1230 µM) | 478.6 (≈ 2910 µM) | 97.6 (≈ 594 µM) |  | 
2 | Cc1ccc(S(=O)(=O)N[C@@H](CCCCN)C(=O)CCl)cc1 [TLCK] |  |  |  |  |  |  |  |  |  |  |  |  |  | significantly inhibited | 
3 | O=C(O)CN(CCN(CC(=O)O)CC(=O)O)CC(=O)O [EDTA] |  |  |  |  |  |  |  |  |  |  |  |  |  | significantly inhibited | 
4 | CC12CCC(CC1)C(C)(C)O2 [1,8-cineole] | 1430 (≈ 9240 µM) | 13.9 (12.8–14.7) µg/Larvae | 13.9 | 13.9 | 119.4 (≈ 774 µM) |  | 256.3 (≈ 1660 µM) |  |  | 271.2 (≈ 1760 µM) | 193.1 (≈ 1250 µM) | 708.2 (≈ 4590 µM) | 91.5 (≈ 593 µM) |  | 1297.2 (≈ 8410 µM)
5 | C=CC(=C)CCC=C(C)CCC=C(C)C [β-farnesene] | 1360 (≈ 6640 µM) | 18.4 (17.1–19.7) µg/Larvae |  | 18.4 |  | 128.4 (≈ 628 µM) |  | 536.8 (≈ 2630 µM) | 425.8 µg/mL (≈ 2080 µM) | 60.2 (≈ 295 µM) | 675.2 (≈ 3300 µM) | 101.5 (≈ 497 µM) | 88.6 (≈ 434 µM) |  | 545.7 (≈ 2670 µM)
6 | C=CC(C)(O)CCC=C(C)C (centres unmarked) [linalool] | 1400 (≈ 9060 µM) | 13.7 (12.6–14.8) µg/Larvae | 13.7 | 13.7 | 104.2 (≈ 676 µM) | 189.2 (≈ 1230 µM) | 217.2 (≈ 1410 µM) | 348.2 (≈ 2260 µM) | 137.5 µg/mL (≈ 891 µM) | 63.4 (≈ 411 µM) | 192.7 (≈ 1250 µM) | 278.2 (≈ 1800 µM) | 90.7 (≈ 588 µM) |  | 
7 | C=C1CC/C=C(\C)CC[C@@H]2[C@@H]1CC2(C)C [β-caryophyllene] | 1520 (≈ 7450 µM) | 20.1 (18.7–21.4) µg/Larvae |  | 20.1 |  | 204.4 (≈ 1000 µM) |  | 586.3 (≈ 2870 µM) | 489.3 µg/mL and 542.8 µg/mL | 70.4 (≈ 344 µM) | 748.2 (≈ 3660 µM) | 314.5 (≈ 1540 µM) | 176.3 (≈ 863 µM) |  | 
8 | CC1=CCC(C(C)C)=CC1 [γ-terpinene] |  |  |  |  | 154.3 (≈ 1130 µM) |  | 315.8 (≈ 2320 µM) |  | 594.1 µg/mL (≈ 4360 µM) | 229.7 (≈ 1690 µM) | 337.4 (≈ 2480 µM) | 526.8 (≈ 3870 µM) | 268.1 (≈ 1970 µM) |  | 
9 | O=C(O)CI [iodoacetic acid] |  |  |  |  |  |  |  |  |  |  |  |  |  | significantly inhibited | 
10 | C=C(C)C1CCC(C)C2=C(C1)C(C)CC2 (stereo not drawn) [α-guaiene] | 1490 (≈ 7300 µM) | 19.2 (17.8–20.7) µg/Larvae |  | 19.2 |  | 238.5 (≈ 1170 µM) |  | 642.3 (≈ 3140 µM) | 454.4 µg/mL (≈ 2220 µM) | 66.8 (≈ 327 µM) | 694.7 (≈ 3400 µM) | 124.9 (≈ 611 µM) | 107.4 (≈ 526 µM) |  | 594.7 (≈ 2910 µM)
11 | c1cnc2c(c1)ccc1cccnc12 [1,10 phenanthroline] |  |  |  |  |  |  |  |  |  |  |  |  |  | significantly inhibited | 
12 | Cc1ccc(S(=O)(=O)N[C@@H](Cc2ccccc2)C(=O)CCl)cc1 [TPCK] |  |  |  |  |  |  |  |  |  |  |  |  |  | significantly inhibited | 
13 | C=C1CCC2CC1C2(C)CCC=C(C)C (stereo not drawn) [β-bergamotene] | 1290 (≈ 6330 µM) | 17.2 (16.1–18.4) µg/Larvae |  | 17.2 |  | 119.6 (≈ 585 µM) |  | 521.4 (≈ 2550 µM) | 284.5 µg/mL (≈ 1390 µM) | 58.5 (≈ 286 µM) | 598.3 (≈ 2930 µM) | 134.8 (≈ 660 µM) | 78.9 (≈ 386 µM) |  | 613.5 (≈ 3000 µM)
14 | O=C(O)CN(CCOCCOCCN(CC(=O)O)CC(=O)O)CC(=O)O [EGTA] |  |  |  |  |  |  |  |  |  |  |  |  |  | significantly inhibited | 
15 | C=C/C(C)=C/CC=C(C)C [(E)-β-ocimene] | 3010 (≈ 22100 µM) | 31.2 (27.4–32.8) µg/Larvae |  | 31.2 |  |  |  |  |  | 157.2 (≈ 1150 µM) | 273.2 (≈ 2010 µM) | 321.7 (≈ 2360 µM) | 207.4 (≈ 1520 µM) |  | 
16 | C=CCc1ccc(OC)cc1 [estragole] | 3590 (≈ 24200 µM) |  |  |  |  |  |  |  | 628.7 µg/mL (≈ 4240 µM) | 257.5 (≈ 1740 µM) | 314.8 (≈ 2120 µM) | 627.8 (≈ 4240 µM) | 254.7 (≈ 1720 µM) |  | 1014.1 (≈ 6840 µM)
17 | CC(C)=CCC/C(C)=C\CO [nerol] | 1950 (≈ 12600 µM) | 15.6 (14.3–16.2) µg/Larvae | 15.6 | 15.6 |  |  |  |  | 186.3 µg/mL (≈ 1210 µM) | 68.1 (≈ 441 µM) | 248.6 (≈ 1610 µM) | 106.7 (≈ 692 µM) | 188.3 (≈ 1220 µM) |  | 189.1 (≈ 1230 µM)
18 | C=C1/C=C/[C@H](C(C)C)CC/C(C)=C/CC1 [germacrene D] | 2040 (≈ 10000 µM) | 21.3 (19.7–22.5) µg/Larvae |  | 21.3 |  |  |  |  |  | 144.2 (≈ 706 µM) | 861.2 (≈ 4210 µM) | 112.3 (≈ 550 µM) | 182.1 (≈ 891 µM) |  | 574.6 (≈ 2810 µM)
